Measured values from patent US9629834B2, “Medicinal composition for inhibiting formation and/or enlargement of cerebral aneurysm or shrinking same” (KYOTO UNIVERSITY, priority 2013, dated 2017).

Columns and labels:
[1] = test system: cerebral aneurysm model; assay: Inhibitory effect on formation of cerebral aneurysm in cerebral aneurysm model (EvG staining, size of aneurysm); type: in vivo, SD rat; conditions: 5 mL/kg, forced oral, once a day, Day 0 to Day 26
Description: A rat model of cerebral aneurysm was prepared according to the method disclosed on the literature by Hashimoto et al. (Surgical Neurology 1978, Vol. 10, p. 3-8). Namely, 50 mg/kg of pentobarbital was administrated intraperitoneally to a 7-week-old male SD rat, and the left common carotid artery and the left renal artery were ligated by using 10-0 nylon thread under anesthesia (this is referred to as the surgery for inducing cerebral aneurysm). From the day after surgery (Day 1), the rat was reared with being fed a high-salt diet. During a rearing period, the rat was given free access to water. Forced oral administration of 0.03 mg/5 mL or 0.1 mg/5 mL of the suspension of Compound 1 to the cerebral aneurysm model was conducted once a day at a dose of 5 mL/kg from the day after surgery, i.e., 1 day after surgery (Day 1) to 27 days after surgery (Day 27). It should be noted that forced oral administration of the 0.5% MC solution (0 mg/5 mL of the suspension of Compound 1) to the cerebral aneurysm model was conducted once a day at a dose of 5 mL/kg. The group of these rats was defined as a vehicle group. 28 Days after surgery (Day 28), the right olfactory artery/anterior cerebral artery bifurcation containing cerebral aneurysm was extirpated and was fixed with 4% paraformaldehyde, and then the solution was replaced with a 30% sucrose solution, and thereafter, the extirpated bifurcation was frozen to prepare a specimen of a frozen section having a thickness of 5 μm, by similar procedures to the steps 1) and 2) of the method of Reference Example 2. This specimen was subjected to EvG staining and the formation of cerebral aneurysm was confirmed. The size of cerebral aneurysm was measured and evaluation was conducted. The maximum diameter (Maximum) represents the maximum distance between internal elastic lamina disruption sites observed by EvG staining, the height “Height” represents the maximum value of height defined as the length of the perpendicular line drawn from the line connecting the two ends of internal elastic lamina, and the mean diameter “Mean” represents the mean value of the maximum diameter and the height. This evaluation was conducted on all the rats (8 or 9 rats) of each of the groups, and the mean value of each of the groups was calculated. The administration of 0.1 mg/5 mL of a suspension of Compound 2 to the cerebral aneurysm model was started on the day of the surgery (Day 0) at a dose of 5 mL/kg, and forced oral administration was conducted once a day until 26 days after surgery (Day 26). The size of cerebral aneurysm was measured by using the protocol of Example 1. […] The size of cerebral aneurysm was measured by using the protocol of Example 1. […] The size of cerebral aneurysm was measured by using the protocol of Example 1.

[2] = test system: Human carotid artery endothelial cells; assay: Inhibitory action of S1P1 receptor antagonist on inhibitory effect of Compound 1 on permeability of endothelial cells; type: cell-based; conditions: antagonist 0.1 nM, 1 nM, 10 nM, or 100 nM with Compound 1 100 nM; FITC-dextran; FIG. 15
Description: Human carotid artery endothelial cells HCtAEC (Cell Applications) were seeded in the upper compartment of Transwell (diameter: 6.5 mm, pore size: 0.4 μm, collagen-Coated: Corning) so that the cell density was 1×10^5 cells/well, and the cells were cultured overnight in MesoEndo Growth Medium (Cell Applications) under a 5% CO2 atmosphere at 37° C. The medium was replaced with Endothelial Cell Serum-Free Defined Medium (Cell Applications), and the cells were further cultured overnight under the CO2 atmosphere at 37° C. Then, Compound 1 was added to the upper compartment and the lower compartment of Transwell so that the final concentration was 0 nM, 0.1 nM, 1 nM, 10 nM, or 100 nM, and the cells were cultured continuously. The well to which Compound 1 was not added was defined as a control. After culturing for 60 minutes, 250 μg/mL of fluorescein isothiocyanate (FITC)-dextran (2,000 kDa: Sigma-Aldrich) was added to the upper compartment of Transwell, and the amount of FITC-dextran which permeated into the lower compartment was determined by measuring the fluorescence intensity of the medium in the lower compartment after 5 minutes, 60 minutes, and 210 minutes. […]
After culturing for 60 minutes, the amount of FITC-dextran which permeated into the lower compartment was determined in a similar manner to Example 6.

SMILES: Cl.O=C(O)C1CCN(CC2=Cc3ccc(OCc4ccc(OCC(F)(F)F)c(C(F)(F)F)c4)cc3OC2)CC1 [Compound 2, 1-[(7-{[4-(2,2,2-trifluoroethoxy)-3-(trifluoromethyl)benzyl]oxy}-2H-chromen-3-yl)methyl]piperidine-4-carboxylic acid hydrochloride]
- formation of cerebral aneurysm (size) ([1]; 0.1 mg/5 mL suspension, FIG. 11): inhibited the formation of cerebral aneurysm

SMILES: Cl.NC(CO)(CO)CCc1ccc(Sc2cccc(OCc3ccccc3)c2)cc1Cl [Compound 3, 2-amino-2-[2-[4-[3-(benzyloxy)phenylsulfanyl]-2-chlorophenyl]ethyl]propane-1,3-diol hydrochloride]
- formation of cerebral aneurysm (size) ([1]; 0.01 mg/5 mL suspension, FIG. 12): inhibited the formation of cerebral aneurysm

SMILES: CCc1cc(/C(C)=N/OCc2ccc(C3CCCCC3)c(C(F)(F)F)c2)ccc1CN1CC(C(=O)O)C1 [Compound 4, 1-[4-[N-[4-cyclohexyl-3-(trifluoromethyl)benzyloxy]-1(E)-iminoethyl]-2-ethylbenzyl]azetidine-3-carboxylic acid]
- formation of cerebral aneurysm (size) ([1]; 0.3 mg/5 mL suspension, FIG. 13): inhibited the formation of cerebral aneurysm

SMILES: CCn1c(Oc2cccc(N3CCN(C)CC3)c2)nnc1[C@@H](C)NS(=O)(=O)c1ccc2c(Cl)cccc2c1 [Compound At, 5-chloro-N-[(1R)-1-{4-ethyl-5-[3-(4-methylpiperazin-1-yl)phenoxy]-4H-1,2,4-triazol-3-yl}ethyl]naphthalene-2-sulfonamide]
- effect on the inhibitory effect of Compound 1 on permeability of endothelial cells [2]: inhibited the inhibitory effect of Compound 1 on permeability of endothelial cells in a concentration-dependent manner
